Reference: ChEMBL document CHEMBL1201862, “PubChem BioAssay data set” (2004)
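All cell lines were grown in 96-well plates and treated with compound for 48 hours. At the GI50, growth is halved.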 Calls of active or inactive are those of the source. Cut-off read from the data, not from the text of the source: active = GI50 up to about 1.1 µM and inactive = higher.

Key:
Experiment in all cases: DTP human tumour cell line panel, 48 h
[1] = system: ACHN
[2] = system: SK-MEL-2
[3] = system: DMS-273
[4] = system: SK-MEL-5
[5] = system: DMS-114
[6] = system: LOX IMVI
[7] = system: UO-31
[8] = system: RPMI-8226
[9] = system: COLO 205
[10] = system: SNB-78
[11] = system: A549
[12] = system: OVCAR-5
[13] = system: 786-0
[14] = system: HT-29
[15] = system: HOP-62
[16] = system: NCI-H460
[17] = system: SNB-75
[18] = system: HCT-116
[19] = system: SF-268
[20] = system: RXF 393
[21] = system: SW-620
[22] = system: SN12C
[23] = system: KM12
[24] = system: OVCAR-8
[25] = system: RXF 631
[26] = system: XF498
[27] = system: SR
[28] = system: M14
[29] = system: Malme-3M
[30] = system: HCT-15
[31] = system: DLD-1
[32] = system: NCI-H226
[33] = system: HCC 2998
[34] = system: SF-295
[35] = system: M19-MEL
[36] = system: MOLT-4
[37] = system: SF-539
[38] = system: OVCAR-3
[39] = system: IGROV-1
[40] = system: HOP-18
[41] = system: NCI-H522
[42] = system: LXFL 529
[43] = system: U-251
[44] = system: UACC-257
[45] = system: HOP-92
[46] = system: UACC-62
[47] = system: KM-20L2
[48] = system: NCI-H23
[49] = system: SK-MEL-28
[50] = system: EKVX
[51] = system: TK-10
[52] = system: SK-OV-3
[53] = system: SNB-19
[54] = system: K562
[55] = system: OVCAR-4
[56] = system: A498
[57] = system: HL-60
[58] = system: CCRF-CEM
[59] = system: CAKI-1

**Q.** Which results are given for `CC(=O)OC1(C(C)=O)CC2(c3ccccc3)OC1(c1ccccc1)c1ccccc12` (stereo not given)?
**A.** GI50 [1]: 16.6 µM (inactive); GI50 [2]: 12.6 µM (inactive); GI50 [3]: 5.08 µM (inactive); GI50 [4]: 3.37 µM (inactive); GI50 [5]: 3.21 µM (inactive); GI50 [6]: 16.4 µM (inactive); GI50 [7]: 12 µM (inactive); GI50 [8]: 3.18 µM (inactive); GI50 [9]: 7.67 µM (inactive); GI50 [10]: 31.7 µM (inactive); GI50 [11]: 25.3 µM (inactive); GI50 [12]: > 100 µM (inactive); GI50 [13]: 31 µM (inactive); GI50 [14]: 30.1 µM (inactive); GI50 [15]: 11.6 µM (inactive); GI50 [16]: 10.4 µM (inactive); GI50 [17]: 59.6 µM (inactive); GI50 [18]: 7.78 µM (inactive); GI50 [19]: 52.5 µM (inactive); GI50 [20]: 13 µM (inactive); GI50 [21]: 16.7 µM (inactive); GI50 [22]: 35.6 µM (inactive); GI50 [23]: 17.3 µM (inactive); GI50 [24]: 34.6 µM (inactive); GI50 [25]: 16.9 µM (inactive); GI50 [26]: 5.51 µM (inactive); GI50 [27]: 6.56 µM (inactive); GI50 [28]: 14.4 µM (inactive); GI50 [29]: 18.6 µM (inactive); GI50 [30]: 6.38 µM; GI50 [31]: 8.34 µM (inactive); GI50 [32]: 5.98 µM (inactive); GI50 [33]: 16.8 µM (inactive); GI50 [34]: 33.3 µM (inactive); GI50 [35]: 9.77 µM (inactive); GI50 [36]: 5.81 µM (inactive); GI50 [37]: 32 µM (inactive); GI50 [38]: 11.4 µM (inactive); GI50 [39]: 4.91 µM (inactive); GI50 [40]: 42.5 µM (inactive); GI50 [41]: 4.26 µM (inactive); GI50 [42]: 7.53 µM (inactive); GI50 [43]: 18.2 µM (inactive); GI50 [44]: 4.1 µM (inactive); GI50 [45]: 17.7 µM (inactive); GI50 [46]: 4.36 µM (inactive); GI50 [47]: 8.59 µM (inactive); GI50 [48]: 8.34 µM (inactive); GI50 [49]: 31.6 µM (inactive); GI50 [50]: 5.26 µM (inactive); GI50 [51]: 17.6 µM (inactive); GI50 [52]: 46.9 µM (inactive); GI50 [53]: 7.73 µM (inactive)

**Q.** Which results are given for `Cc1cc(Cl)ccc1NC(=O)CC/C(CC(=O)C(C)C)=N\NC(=O)C[n+]1ccccc1`?
**A.** GI50 [1]: > 100 µM (inactive); GI50 [2]: > 100 µM (inactive); GI50 [3]: > 100 µM (inactive); GI50 [4]: > 100 µM (inactive); GI50 [5]: > 100 µM (inactive); GI50 [6]: > 100 µM (inactive); GI50 [7]: > 100 µM (inactive); GI50 [8]: > 100 µM (inactive); GI50 [9]: > 100 µM (inactive); GI50 [10]: > 100 µM (inactive); GI50 [11]: > 100 µM (inactive); GI50 [12]: > 100 µM (inactive); GI50 [13]: > 100 µM (inactive); GI50 [14]: > 100 µM (inactive); GI50 [15]: > 100 µM (inactive); GI50 [16]: > 100 µM (inactive); GI50 [17]: > 100 µM (inactive); GI50 [18]: > 100 µM (inactive); GI50 [19]: > 100 µM (inactive); GI50 [20]: > 100 µM (inactive); GI50 [21]: > 100 µM (inactive); GI50 [54]: > 100 µM (inactive); GI50 [22]: > 100 µM (inactive); GI50 [23]: > 100 µM (inactive); GI50 [24]: > 100 µM (inactive); GI50 [25]: > 100 µM (inactive); GI50 [26]: > 100 µM (inactive); GI50 [27]: > 100 µM (inactive); GI50 [55]: > 100 µM (inactive); GI50 [56]: > 100 µM (inactive); GI50 [28]: > 100 µM (inactive); GI50 [29]: > 100 µM (inactive); GI50 [30]: > 100 µM; GI50 [32]: > 100 µM (inactive); GI50 [33]: > 100 µM (inactive); GI50 [34]: > 100 µM (inactive); GI50 [36]: > 100 µM (inactive); GI50 [37]: > 100 µM (inactive); GI50 [57]: > 100 µM (inactive); GI50 [38]: > 100 µM (inactive); GI50 [39]: > 100 µM (inactive); GI50 [40]: > 100 µM (inactive); GI50 [41]: > 100 µM (inactive); GI50 [42]: > 100 µM (inactive); GI50 [43]: > 100 µM (inactive); GI50 [58]: > 100 µM (inactive); GI50 [44]: > 100 µM (inactive); GI50 [45]: > 100 µM (inactive); GI50 [46]: > 100 µM (inactive); GI50 [47]: > 100 µM (inactive); GI50 [48]: > 100 µM (inactive); GI50 [49]: > 100 µM (inactive); GI50 [50]: > 100 µM (inactive); GI50 [51]: > 100 µM (inactive); GI50 [59]: > 100 µM (inactive); GI50 [52]: > 100 µM (inactive); GI50 [53]: > 100 µM (inactive)

**Q.** How did the GI50 [1] turn out when `CC1Oc2c(c(O)cc3oc(=O)cc(-c4ccccc4)c23)C(=O)C1C` (stereo not given) was run?
**A.** > 100 µM (inactive)

**Q.** And the GI50 [2]?
**A.** > 100 µM (inactive)

**Q.** And the GI50 [3]?
**A.** > 100 µM (inactive)

**Q.** What about the GI50 [4] of the same compound?
**A.** > 100 µM (inactive)

**Q.** What about the GI50 [6] of the same compound?
**A.** > 100 µM (inactive)

**Q.** What about the GI50 [7] of the same compound?
**A.** > 100 µM (inactive)

**Q.** What about the GI50 [8] of the same compound?
**A.** > 100 µM (inactive)

**Q.** What about the GI50 [9] of the same compound?
**A.** > 100 µM (inactive)

**Q.** And the GI50 [10]?
**A.** > 100 µM (inactive)

**Q.** What about the GI50 [14] of the same compound?
**A.** > 10 µM (inactive)

**Q.** And the GI50 [16]?
**A.** > 100 µM (inactive)

**Q.** What about the GI50 [17] of the same compound?
**A.** > 100 µM (inactive)

**Q.** And the GI50 [19]?
**A.** > 100 µM (inactive)

**Q.** What about the GI50 [21] of the same compound?
**A.** > 100 µM (inactive)

**Q.** And the GI50 [54]?
**A.** > 100 µM (inactive)

**Q.** And the GI50 [22]?
**A.** > 100 µM (inactive)

**Q.** What about the GI50 [24] of the same compound?
**A.** > 100 µM (inactive)

**Q.** And the GI50 [25]?
**A.** > 100 µM (inactive)

**Q.** And the GI50 [26]?
**A.** > 100 µM (inactive)

**Q.** And the GI50 [56]?
**A.** > 100 µM (inactive)

**Q.** What about the GI50 [28] of the same compound?
**A.** > 100 µM (inactive)

**Q.** And the GI50 [29]?
**A.** > 100 µM (inactive)

**Q.** And the GI50 [30]?
**A.** > 100 µM

**Q.** And the GI50 [31]?
**A.** > 100 µM (inactive)

**Q.** What about the GI50 [32] of the same compound?
**A.** > 100 µM (inactive)

**Q.** And the GI50 [34]?
**A.** > 100 µM (inactive)

**Q.** And the GI50 [36]?
**A.** > 100 µM (inactive)

**Q.** And the GI50 [37]?
**A.** > 100 µM (inactive)

**Q.** What about the GI50 [57] of the same compound?
**A.** > 100 µM (inactive)

**Q.** And the GI50 [38]?
**A.** > 100 µM (inactive)

**Q.** What about the GI50 [39] of the same compound?
**A.** > 100 µM (inactive)

**Q.** What about the GI50 [40] of the same compound?
**A.** > 100 µM (inactive)

**Q.** What about the GI50 [41] of the same compound?
**A.** > 100 µM (inactive)

**Q.** And the GI50 [42]?
**A.** > 100 µM (inactive)

**Q.** And the GI50 [43]?
**A.** > 100 µM (inactive)

**Q.** What about the GI50 [58] of the same compound?
**A.** > 100 µM (inactive)

**Q.** What about the GI50 [45] of the same compound?
**A.** > 100 µM (inactive)

**Q.** And the GI50 [46]?
**A.** > 100 µM (inactive)

**Q.** And the GI50 [47]?
**A.** > 100 µM (inactive)

**Q.** And the GI50 [48]?
**A.** > 100 µM (inactive)

**Q.** What about the GI50 [49] of the same compound?
**A.** > 100 µM (inactive)

**Q.** What about the GI50 [50] of the same compound?
**A.** > 100 µM (inactive)

**Q.** What about the GI50 [51] of the same compound?
**A.** > 100 µM (inactive)

**Q.** And the GI50 [59]?
**A.** > 100 µM (inactive)

**Q.** What about the GI50 [52] of the same compound?
**A.** > 100 µM (inactive)
